Measurements as given in PubChem BioAssay AID2060505 (Molecular Pharmacology Branch, DTP, NCI, 2025).

Test system: 633275-114-R-J1-PDC complex spheroids, viability
Experiment: Anticancer human tumor 633275-114-R-J1-PDC patient-derived endometrial adenocarcinoma cell line growth inhibition [GQUAD]
Settings: for IC50: curve of first compound; for viability, T/C: stronger effect = lower value
Outline: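 Viability of tumor cells grown as complex spheroids with endothelial and stromal cells, exposed to drug combinations. Top concentration at or near clinical Cmax (else 10 microM), diluted in half-log increments.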

[1] = second compound 0.0316 µM, first compound 0.0316 µM
[2] = second compound 0.0316 µM, first compound 0.1 µM
[3] = second compound 0.0316 µM, first compound 0.316 µM
[4] = second compound 0.0316 µM, first compound 1 µM
[5] = second compound 0.0316 µM, first compound 3.16 µM
[6] = second compound 0.0316 µM, first compound 10 µM
[7] = second compound 0.1 µM, first compound 0.0316 µM
[8] = second compound 0.1 µM, first compound 0.1 µM
[9] = second compound 0.1 µM, first compound 0.316 µM
[10] = second compound 0.1 µM, first compound 1 µM
[11] = second compound 0.1 µM, first compound 3.16 µM
[12] = second compound 0.1 µM, first compound 10 µM
[13] = second compound 0.316 µM, first compound 0.0316 µM
[14] = second compound 0.316 µM, first compound 0.1 µM
[15] = second compound 0.316 µM, first compound 0.316 µM
[16] = second compound 0.316 µM, first compound 1 µM
[17] = second compound 0.316 µM, first compound 3.16 µM
[18] = second compound 0.316 µM, first compound 10 µM
[19] = second compound 1 µM, first compound 0.0316 µM
[20] = second compound 1 µM, first compound 0.1 µM
[21] = second compound 1 µM, first compound 0.316 µM
[22] = second compound 1 µM, first compound 1 µM
[23] = second compound 1 µM, first compound 3.16 µM
[24] = second compound 1 µM, first compound 10 µM
[25] = second compound 3.16 µM, first compound 0.0316 µM
[26] = second compound 3.16 µM, first compound 0.1 µM
[27] = second compound 3.16 µM, first compound 0.316 µM
[28] = second compound 3.16 µM, first compound 1 µM
[29] = second compound 3.16 µM, first compound 3.16 µM
[30] = second compound 3.16 µM, first compound 10 µM
[31] = second compound 10 µM, first compound 0.0316 µM
[32] = second compound 10 µM, first compound 0.1 µM
[33] = second compound 10 µM, first compound 0.316 µM
[34] = second compound 10 µM, first compound 1 µM
[35] = second compound 10 µM, first compound 3.16 µM
[36] = second compound 10 µM, first compound 10 µM
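Note: spheroids exposed to the agents for seven days.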
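Throughout, for viability, T/C: percent of DMSO vehicle control viability which is 100%.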

CC(C)n1c(=O)n(C)c2cnc3cc(F)c(-c4ccc(OCCCN5CCCCC5)nc4)cc3c21 + Cc1[nH]c2ccc(F)cc2c1-c1nc2c3cccnc3c3ncccc3c2[nH]1
IC50 (second compound 0.0316 µM): > 10000 nM
IC50 (second compound 0.1 µM): > 10000 nM
IC50 (second compound 0.316 µM): > 10000 nM
IC50 (second compound 1 µM): > 10000 nM
IC50 (second compound 3.16 µM): > 10000 nM
IC50 (second compound 10 µM): > 10000 nM
viability, T/C [1]: 109%
viability, T/C [2]: 105%
viability, T/C [3]: 109%
viability, T/C [4]: 100%
viability, T/C [5]: 95.3%
viability, T/C [6]: 68.3%
viability, T/C [7]: 109%
viability, T/C [8]: 105%
viability, T/C [9]: 108%
viability, T/C [10]: 101%
viability, T/C [11]: 97.8%
viability, T/C [12]: 70.5%
viability, T/C [13]: 106%
viability, T/C [14]: 105%
viability, T/C [15]: 99.8%
viability, T/C [16]: 99.2%
viability, T/C [17]: 99.9%
viability, T/C [18]: 71.2%
viability, T/C [19]: 106%
viability, T/C [20]: 98.2%
viability, T/C [21]: 103%
viability, T/C [22]: 90.9%
viability, T/C [23]: 98.7%
viability, T/C [24]: 70.7%
viability, T/C [25]: 79.8%
viability, T/C [26]: 76.3%
viability, T/C [27]: 76.2%
viability, T/C [28]: 72.2%
viability, T/C [29]: 68.9%
viability, T/C [30]: 55.1%
viability, T/C [31]: 76.4%
viability, T/C [32]: 74.4%
viability, T/C [33]: 73.9%
viability, T/C [34]: 74.1%
viability, T/C [35]: 75%
viability, T/C [36]: 55.4%

CC1COCCN1c1cc(C2(O)CC3CCC(C2)O3)c2cnn(-c3ccn[nH]3)c2n1 (centres undefined) + Cc1[nH]c2ccc(F)cc2c1-c1nc2c3cccnc3c3ncccc3c2[nH]1
IC50 (second compound 0.0316 µM): 99.9 nM
IC50 (second compound 0.1 µM): 99.1 nM
IC50 (second compound 0.316 µM): 90.4 nM
IC50 (second compound 1 µM): 82.9 nM
IC50 (second compound 3.16 µM): 47.6 nM
IC50 (second compound 10 µM): 38.3 nM
viability, T/C [1]: 80.1%
viability, T/C [2]: 49.7%
viability, T/C [3]: 31.2%
viability, T/C [4]: 20.5%
viability, T/C [5]: 14.6%
viability, T/C [6]: 9.97%
viability, T/C [7]: 76.6%
viability, T/C [8]: 50.4%
viability, T/C [9]: 30%
viability, T/C [10]: 20.7%
viability, T/C [11]: 15.8%
viability, T/C [12]: 10.3%
viability, T/C [13]: 75.3%
viability, T/C [14]: 46.9%
viability, T/C [15]: 30.2%
viability, T/C [16]: 21.3%
viability, T/C [17]: 15.4%
viability, T/C [18]: 9.62%
viability, T/C [19]: 70.6%
viability, T/C [20]: 46.3%
viability, T/C [21]: 28.8%
viability, T/C [22]: 20.4%
viability, T/C [23]: 14.9%
viability, T/C [24]: 9.89%
viability, T/C [25]: 56.5%
viability, T/C [26]: 37.9%
viability, T/C [27]: 26.5%
viability, T/C [28]: 19.4%
viability, T/C [29]: 14.7%
viability, T/C [30]: 9.57%
viability, T/C [31]: 52.4%
viability, T/C [32]: 38%
viability, T/C [33]: 25.7%
viability, T/C [34]: 18.2%
viability, T/C [35]: 15.1%
viability, T/C [36]: 9.9%
